Legend:
[1] = molecular target: T1, APOL1 G2 (Homo sapiens, UniProt O14791, DEL388-389); experiment: APOL1 calcium transport inhibition assay (GCaMP6f calcium influx, FLIPR) in HEK T-REx/GCaMP6f/APOL1 G2 K6.3 cells; type: cell-based; conditions: inhibition of APOL1-mediated calcium influx; geometric mean of at least 2 assay runs, † = single assay run (technical duplicate)
T1 construct: expressed in transfected cells; host or cells: HEK293 T-REx clonal lines: HEK T-REx/GCaMP6f/APOL1 G2 K6.3 in A1, HEK293/T-REx APOL1 G2/clone #2 in A2
T1 sequence (O14791 with tags, fused parts or gaps DEL388-389): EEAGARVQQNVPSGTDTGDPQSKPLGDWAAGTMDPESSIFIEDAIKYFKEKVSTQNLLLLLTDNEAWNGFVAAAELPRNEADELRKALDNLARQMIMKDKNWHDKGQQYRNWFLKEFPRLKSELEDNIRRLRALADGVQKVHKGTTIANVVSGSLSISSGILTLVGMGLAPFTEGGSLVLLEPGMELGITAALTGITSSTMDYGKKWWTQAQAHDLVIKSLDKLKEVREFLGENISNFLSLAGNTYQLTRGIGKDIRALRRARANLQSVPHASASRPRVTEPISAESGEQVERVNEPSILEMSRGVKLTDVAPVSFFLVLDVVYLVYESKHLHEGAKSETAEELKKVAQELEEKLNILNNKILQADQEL
Outline: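 HEK293 cells stably expressing GCaMP6f, APOL1 G2 induced 6 h with doxycycline (20 ng/mL added), then washed into Ca2+-free Tyrode's buffer pH 7.4. Compounds (8-point dose response) preincubated 10 min at room temperature, then Ca2+ injected to 5 mM final and influx read on FLIPR. AC50 reported as geometric mean of runs.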

[2] = molecular target: T1, APOL1 G2; experiment: Rescue of HEK293 cell death caused by overexpression of APOL1 (CellTiter-Glo luminescence), HEK293/T-REx APOL1 G2/clone #2; type: cell-based; conditions: reversal of cell death caused by overexpression of APOL1; geometric mean of at least 2 assay runs, † = single assay run (technical duplicate)
Outline: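 Rescue EC50s come from four-parameter logistic fits, geometric mean of at least 2 runs on separate days, each in duplicate. Readout: CellTiter-Glo luminescence after 17 h at 37 °C of 5,000 HEK293/T-REx APOL1 G2 clone #2 cells/well, with 6 ng/mL doxycycline to induce APOL1 and 3-fold serial compound dilutions in 0.5% DMSO.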

| AC50 [1] | SMILES | EC50 [2] |
| --- | --- | --- |
| 558 nM | CN(c1ccc(OC[C@@H](O)CN2CCC(c3cccc(Cl)c3)C2)cc1)S(C)(=O)=O (single isomer, unassigned) [Compound 75, N-(4-((S)-3-((S) or (R)-3-(3-chlorophenyl)pyrro-lidin-1-yl)-2-hydroxypropoxy)phe-nyl)-N-methylmethanesulfon-amide] | 1460 nM |
| 2830 nM | CN(c1ccc(OC[C@@H](O)CN2CCC(c3cccc(Cl)c3)C2)cc1)S(C)(=O)=O (single isomer, unassigned) [Compound 76, N-(4-((S)-3-((R) or (S)-3-(3-chlorophenyl)pyrro-lidin-1-yl)-2-hydroxypropoxy)phe-nyl)-N-methylmethanesulfon-amide] | > 6280 nM |
| 7010 nM | CN(c1ccc(OC[C@H](O)CN2CCC(c3cccc(Cl)c3)C2)cc1)S(C)(=O)=O (single isomer, unassigned) [Compound 78, N-(4-((R)-3-((S) or (R)-3-(3-chlorophenyl)pyrro-lidin-1-yl)-2-hydroxypropoxy)phe-nyl)-N-methylmethanesulfon-amide] | > 30000 nM |
| 1290 nM | CN(c1ccc(OC[C@H](O)CN2CCC(c3cccc(Cl)c3)C2)cc1)S(C)(=O)=O (single isomer, unassigned) [Compound 79, N-(4-((R)-3-((R) or (S)-3-(3-chlorophenyl)pyrro-lidin-1-yl)-2-hydroxypropoxy)phe-nyl)-N-methylmethanesulfon-amide] | > 13700 nM |
| > 25000 nM | CN(c1ccc(OC[C@@H](O)CN2CCOC(c3cccc(Cl)c3)C2)cc1)S(C)(=O)=O (single isomer, unassigned) [Compound 81, N-(4-((S)-3-((S) or (R)-2-(3-chlorophenyl)morpho-lino)-2-hydroxypropoxy)phe-nyl)-N-methylmethanesulfon-amide] | > 30000 nM |
| 4350 nM | CN(c1ccc(OC[C@@H](O)CN2CCOC(c3cccc(Cl)c3)C2)cc1)S(C)(=O)=O (single isomer, unassigned) [Compound 82, N-(4-((S)-3-((R) or (S)-2-(3-chlorophenyl)morpho-lino)-2-hydroxypropoxy)phe-nyl)-N-methylmethanesulfon-amide] | > 24300 nM |
| > 25000 nM | CN(c1ccc(OC[C@H](O)CN2CCOC(c3cccc(Cl)c3)C2)cc1)S(C)(=O)=O (single isomer, unassigned) [Compound 84, N-(4-((R)-3-((R) or (S)-2-(3-chlorophenyl)morpho-lino)-2-hydroxypropoxy)phe-nyl)-N-methylmethanesulfon-amide] | > 30000 nM |
| 8480 nM | CN(c1ccc(OC[C@H](O)CN2CCOC(c3cccc(Cl)c3)C2)cc1)S(C)(=O)=O (single isomer, unassigned) [Compound 85, N-(4-((R)-3-((S) or (R)-2-(3-chlorophenyl)morpho-lino)-2-hydroxypropoxy)phe-nyl)-N-methylmethanesulfon-amide] | > 18000 nM |
| 338 nM | CC(Cc1cccc(Cl)c1)NC[C@@H](O)COc1ccc(N(C)S(C)(=O)=O)cc1 (single isomer, unassigned) [Compound 88, N-(4-((R)-3-(((S) or (R)-1-(3-chlorophenyl)propan-2-yl)amino)-2-hydroxypropoxy)phe-nyl)-N-methylmethanesulfon-amide] | 698 nM |
| 449 nM | CC(Cc1cccc(Cl)c1)NC[C@@H](O)COc1ccc(N(C)S(C)(=O)=O)cc1 (single isomer, unassigned) [Compound 89, N-(4-((R)-3-(((R) or (S)-1-(3-chlorophenyl)propan-2-yl)amino)-2-hydroxypropoxy)phe-nyl)-N-methylmethanesulfon-amide] | 2020 nM |
| 1540 nM | CC(Cc1cccc(Cl)c1)NC[C@H](O)COc1ccc(N(C)S(C)(=O)=O)cc1 (single isomer, unassigned) [Compound 95, N-(4-((S)-3-(((S) or (R)-1-(3-chlorophenyl)propan-2-yl)amino)-2-hydroxypropoxy)phe-nyl)-N-methylmethanesulfon-amide] | 6900 nM |
